Measurements as given in patent US4563468A, “Chemotherapeutic agents” (Burroughs Wellcome Co., priority 1979, dated 1986).

Tests used:
[1] = test system: rhinovirus; assay: plaque reduction (PR) test; format: cell-based; settings: Enterovirus; 50% of the effective dose estimated from dose response curve; plaque numbers as percentages of a control; monolayer cell culture, compound in nutrient agarose overlay; read-out: PR(ED50)
Description: Activity may be detected by the plaque inhibition (PI) test and measured by the plaque reduction (PR) test. Both assays involve the formation of a monolayer cell culture in a petri dish followed by infection with a virus suspension, and then overlaying the culture with nutrient agarose in the form of a gel. This gel ensures that there is no spread of virus throughout the culture and thus areas of localised cell destruction or plaques are formed. Detectable activity is measured with the plaque reduction assay. A range of concentrations of compound of known molarity are incorporated in the nutrient agarose overlay. Plaque suppression is proportional to compound concentration. Plaque numbers are expressed as percentages of a control, and a dose response curve may be drawn. From this curve 50% of the effective dose (ED50) may be estimated.

[2] = test system: rhinovirus; assay: Intranasal Administration-Simulation in vitro (plaque inhibition, compound on petri dish lid); format: cell-based; settings: 1 μg in ethanol applied to petri dish lids, ethanol evaporated; cell sheet covered with agarose gel
From the text: Activity may be detected by the plaque inhibition (PI) test and measured by the plaque reduction (PR) test. Both assays involve the formation of a monolayer cell culture in a petri dish followed by infection with a virus suspension, and then overlaying the culture with nutrient agarose in the form of a gel. This gel ensures that there is no spread of virus throughout the culture and thus areas of localised cell destruction or plaques are formed. In the plaque inhibition test a filter paper disc which holds 0.01 ml when impregnated with a solution of compound is placed on top of the agarose gel. The compound may then diffuse throughout the gel so that its greatest concentration will be around the disc and its lowest concentration towards the periphery of the petri dish. The efficacy of the compound may be detected by observing the zone of inhibition of plaque formation. Petri dishes were prepared, as for the plaque inhibition test and the confluent sheet of cells was covered with a layer of agarose gel. The compound, 2-(3-pyridyl)chroman (1 μg) was dissolved in ethanol, and applied to the lids of the petri dishes. When the ethanol had evaporated, leaving the compound spread over the inside of the lids, these were replaced on the petri dishes.

SMILES	EC50 [1] [nM]	inhibition of plaque formulation [2]
Clc1ccc2c(c1)CCC(c1cccnc1)O2 (stereo not shown) [6-chloro-2-(3-pyridyl)chroman]	42	
[O-][n+]1cccc(C2CCc3ccccc3O2)c1 (racemic) [2-(3-pyridyl)chroman N--oxide, 2-(3-pyridyl)chroman N-oxide]	1100	
c1cncc(C2CCc3ccccc3O2)c1 (stereo not shown) [2-(3-pyridyl)chroman]	390	total inhibition
